Reference: patent US9988680B2, “Non-natural nucleosides as theranostic agents” (Case Western Reserve University, priority 2011, dated 2018)

Columns and labels:
[1] = molecular target: T1, terminal deoxynucleotidyl transferase (TdT) (Bos taurus, UniProt P06526); test: Incorporation of natural and non-natural nucleotides by TdT (polymerization assay, Michaelis-Menten kinetics); format: biochemical; conditions: reaction times of up to 20 min
[2] = molecular target: T1, terminal deoxynucleotidyl transferase (TdT); test: as above; format: biochemical
Experimental: All enzymatic assays were performed as previously described. […] Reactions were quenched with 200 Mm EDTA at variable times (5-600 s) and analyzed using denaturing gel electrophoresis. Time courses in product formation were fitted using eq 1: Y=mt+b(1) (1)
where y is the amount of product, m is the rate of the reaction, t is time, and b is the Y-intercept. Km and Vmax values were determined by fits of the data points to the Michaelis-Menten equation: […]
where Vmax is the maximal rate of nucleotide incorporation, Km is the Michaelis constant for dNTP, and [dNTP] is the concentration of nucleotide substrate. The IC50 value for 3-Eth-5-NITP was obtained using a nonlinear regression curve fit of the data to eq 3:
The biological function of TdT is to expand immunological diversity by randomly incorporating dNTPs into single-stranded DNA during V(D)J recombination. […] TdT also utilizes nucleotide analogues including 2′,3′-dideoxynucleotides, dinucleoside 5′,5′-tetraphosphates, and intrinsically fluorescent nucleotide analogues. In this report, we tested if TdT also incorporates indolyl-2′-deoxyribose-5′-triphosphates that bear non-natural moieties such as ethynyl and nitro groups at the 3- and 5-position, respectively, of the indole base. […] Aliquots of the reaction were quenched with EDTA at variable time points, and the polymerization reactions were then subjected to denaturing polyacrylamide gel electrophoresis to separate extended primers from unreacted substrate.
Time courses in product formation were generated using pseudo-first order reaction conditions in which 6 units of TdT were incubated with 1.5 μM DNA substrate and mixed with variable concentrations of non-natural nucleotide (0.05-50 μM). Each time course was fit to an equation for a straight line to define the rate of nucleotide incorporation (data not shown).

T1 sequence (P06526 whole entry): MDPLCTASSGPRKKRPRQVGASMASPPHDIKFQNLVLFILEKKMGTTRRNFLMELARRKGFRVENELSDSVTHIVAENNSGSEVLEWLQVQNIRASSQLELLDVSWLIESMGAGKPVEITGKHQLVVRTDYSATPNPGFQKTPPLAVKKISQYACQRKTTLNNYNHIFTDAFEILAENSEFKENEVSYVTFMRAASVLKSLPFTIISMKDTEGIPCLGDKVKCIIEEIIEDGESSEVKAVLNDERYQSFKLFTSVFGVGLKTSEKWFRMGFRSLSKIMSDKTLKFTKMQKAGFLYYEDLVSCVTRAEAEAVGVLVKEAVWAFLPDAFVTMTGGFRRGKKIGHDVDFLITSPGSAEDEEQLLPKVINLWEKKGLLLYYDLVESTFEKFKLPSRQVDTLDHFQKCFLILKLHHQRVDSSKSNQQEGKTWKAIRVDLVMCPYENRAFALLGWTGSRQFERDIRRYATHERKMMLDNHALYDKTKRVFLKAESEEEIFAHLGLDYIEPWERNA

## C#Cc1cn(C2CC(O)C(COP(=O)(O)OP(=O)(O)OP(=O)(O)O)O2)c2ccc([N+](=O)[O-])cc12 (stereo not drawn) [3-Eth-5-NITP, 3-ethynyl-5-nitroindolyl-2′-deoxyribose-5′-triphosphate]
[1]
  extension by TdT beyond the incorporated nucleotide at longer reaction times: not observed
[2]; 100 μM nucleotide, 6 units TdT, 1.5 μM 14-mer (FIG. 2B)
  utilization by TdT (elongation of 14-mer DNA substrate): utilized by TdT as efficiently as the natural purines
[2]; 100 μM nucleotide, 14-mer DNA, gel (FIG. 2B)
  extension by TdT beyond the incorporated nucleotide: poorly extended
[2]; incorporation by TdT, 6 units TdT, 1.5 μM single-stranded DNA substrate
  Vmax: 3.2 ± 0.1 nM/s
[2]; relative to 5-NITP
  catalytic efficiency higher than that for 5-NITP: 7 fold
  decrease in Vmax: 3.5 fold
